Here are results for three compounds from paper PMC6750840 (Journal of Medicinal Chemistry, 2019).

The subject of data set [1] is histamine-induced flare response. The following applies: after oral administration; cited from earlier work.
For data set [2] the following is noted: after administration; cited from earlier work.
Data set [3] relates to H1R. The following applies: cited from earlier work.
In data set [4] the target is human H1R (Homo sapiens, UniProt P35367). Nature of the data set: Binding rate constants of [3H]levocetirizine. The following applies: four concentrations (1–35 nM), 360 min, 37 °C.
human H1R, sequence (P35367 whole entry): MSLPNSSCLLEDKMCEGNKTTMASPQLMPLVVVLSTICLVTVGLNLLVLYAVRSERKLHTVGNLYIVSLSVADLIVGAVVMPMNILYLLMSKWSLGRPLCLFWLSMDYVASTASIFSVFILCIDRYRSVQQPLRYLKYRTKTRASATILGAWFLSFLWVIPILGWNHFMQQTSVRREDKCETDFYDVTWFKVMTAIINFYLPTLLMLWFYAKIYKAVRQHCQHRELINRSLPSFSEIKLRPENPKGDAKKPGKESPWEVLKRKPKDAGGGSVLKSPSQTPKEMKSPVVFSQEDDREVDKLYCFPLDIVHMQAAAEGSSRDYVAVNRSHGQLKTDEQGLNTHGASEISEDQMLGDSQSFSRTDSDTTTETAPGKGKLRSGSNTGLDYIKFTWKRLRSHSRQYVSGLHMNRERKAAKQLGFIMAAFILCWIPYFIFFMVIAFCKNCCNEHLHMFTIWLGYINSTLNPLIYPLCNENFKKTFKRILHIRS

On to `Cc1cncc(CN2CCC(=C3c4ccc(Cl)cc4CCc4cccnc43)CC2)c1` [Compound 1, rupatadine], for which, in data set [1], the “duration of antagonism of the histamine-induced flare response” value was “up to 72 h”. Further, the “time up to which plasma levels could be detected” value in data set [2] is “up to 12 h”. In the case of `O=C(O)COCCN1CCN([C@H](c2ccccc2)c2ccc(Cl)cc2)CC1` [levocetirizine], the “fold longer residence time at the H1R than mepyramine” value in data set [3] is 100 fold. As for “(R)-5-(4-((4-Chlorophenyl)([4-^3H]phenyl)methyl)piperazin-1-yl)pentanoic Acid [[^3H]levocetirizine]”, in data set [4], the koff is 0.022 ± 0.003 min^–1 and the kon was 3.7 ± 0.4 10^6 min^–1 M^–1.
